The source of these data is ChEMBL document CHEMBL4270525, “SAR studies on truxillic acid mono esters as a new class of antinociceptive agents targeting fatty acid binding proteins” (Eur J Med Chem, 2018).

Some results are limits rather than exact numbers.

The target of data set [1] is Fatty acid-binding protein, heart (Homo sapiens, UniProt P05413). As to the kind of experiment: Displacement of DAUDA from recombinant human N-terminal His-tagged FABP3 expressed in Escherichia coli BL21(DE3) after 20 mins by fluorescence assay.
Fatty acid-binding protein, heart, sequence (P05413 whole entry): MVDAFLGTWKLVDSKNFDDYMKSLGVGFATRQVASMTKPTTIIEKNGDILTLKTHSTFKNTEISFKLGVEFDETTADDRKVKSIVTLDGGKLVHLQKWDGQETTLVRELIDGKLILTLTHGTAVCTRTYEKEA
Data set [2] deals with Fatty acid-binding protein, brain (Homo sapiens, UniProt O15540). In words: Displacement of ANS from recombinant human N-terminal His-tagged FABP7 expressed in Escherichia coli BL21(DE3) after 20 mins by fluorescence assay.
Fatty acid-binding protein, brain, sequence (O15540 whole entry): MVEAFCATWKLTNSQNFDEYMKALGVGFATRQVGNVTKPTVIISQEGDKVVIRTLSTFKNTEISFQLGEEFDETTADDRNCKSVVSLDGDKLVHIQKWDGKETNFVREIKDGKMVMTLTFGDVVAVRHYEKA
In data set [3] the target is Fatty acid-binding protein 5 (Homo sapiens, UniProt Q01469). As to the kind of experiment: Displacement of DAUDA from recombinant human N-terminal His-tagged FABP5 expressed in Escherichia coli BL21(DE3) after 20 mins by fluorescence assay.
Fatty acid-binding protein 5, sequence (Q01469 whole entry): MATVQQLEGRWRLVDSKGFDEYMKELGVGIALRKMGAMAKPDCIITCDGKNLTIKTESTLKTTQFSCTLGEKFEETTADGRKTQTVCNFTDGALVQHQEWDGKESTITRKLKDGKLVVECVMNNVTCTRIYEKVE
Data set [4] can be described thus: Colloidal aggregation of the compound at 20 uM by dynamic light scattering method. The format is physicochemical.
A short description of data set [5]: Half life in C57BL/6 mouse at 20 mg/kg, ip by LC-MS analysis. Particulars: in vivo; call rule not given here. The format is ADME, organism-based.

As for `O=C(O)[C@H]1[C@H](c2ccccc2)[C@@H](C(=O)Nc2nc(-c3ccc4c(c3)CCCC4)cs2)[C@H]1c1ccccc1`, the Ki in data set [1] (read-out: Ki), in data set [2] (read-out: Ki) and in data set [3] (read-out: Ki) was over 10 µM each time.

As to `COc1ccc(COC(=O)[C@H]2[C@H](c3ccccc3)[C@H](C(=O)OCc3ccc(OC)cc3)[C@H]2c2ccccc2)cc1`, the Ki in data set [1] (read-out: Ki), in data set [2] (read-out: Ki) and in data set [3] (read-out: Ki) was over 10 µM throughout.

In the case of `O=C(O)[C@H]1[C@H](c2ccccc2)[C@H](C(=O)O)[C@H]1c1ccccc1`, the Ki in data set [1] (read-out: Ki), in data set [2] (read-out: Ki) and in data set [3] (read-out: Ki) was over 10 µM in each case.

`O=C(OCC1CCOCC1)[C@H]1[C@H](c2ccccc2)[C@H](C(=O)OCC2CCOCC2)[C@H]1c1ccccc1`: the Ki in data set [1] (read-out: Ki), in data set [2] (read-out: Ki) and in data set [3] (read-out: Ki) was over 10 µM in each case.

Turning to `COc1cc([C@H]2[C@H](C(=O)O)[C@H](c3ccc(O)c(OC)c3)[C@H]2C(=O)O)ccc1O`, the Ki in data set [1] (read-out: Ki), in data set [2] (read-out: Ki) and in data set [3] (read-out: Ki) was over 10 µM throughout.

Regarding `COc1ccccc1[C@H]1[C@H](C(=O)O)[C@H](c2ccccc2OC)[C@H]1C(=O)Oc1cccc2ncccc12`, the inhibition constant (Ki) in data set [1] (read-out: Ki) was over 10 µM; in data set [2] (read-out: Ki), over 10 µM; in data set [3] (read-out: Ki), 3.93 µM.

In the case of `O=C(O)[C@H]1[C@H](c2ccccc2)[C@H](C(=O)Oc2cccc3ccccc23)[C@H]1c1ccccc1`, in data set [1] (read-out: Ki), the Ki was determined as 2.82 µM.

For `O=C(O)[C@H]1[C@H](c2ccccc2Br)[C@H](C(=O)O[C@@H]2CCCC[C@H]2c2ccccc2)[C@H]1c1ccccc1Br`, the Ki in data set [1] (read-out: Ki) and in data set [2] (read-out: Ki) was over 10 µM in each case.

On to `COc1ccccc1[C@H]1[C@H](C(=O)O)[C@H](c2ccccc2OC)[C@H]1C(=O)O[C@@H]1CCCC[C@H]1c1ccccc1`, for which the inhibition constant Ki in data set [1] (read-out: Ki) and in data set [2] (read-out: Ki) was 0.4 µM each time.

For `O=C(O)[C@H]1[C@H](c2ccccc2)[C@H](C(=O)Nc2nc(-c3ccc4c(c3)CCCC4)cs2)[C@H]1c1ccccc1`, the Ki in data set [1] (read-out: Ki), in data set [2] (read-out: Ki) and in data set [3] (read-out: Ki) was over 10 µM each time.

Take `O=C(OCc1ccccc1)[C@H]1[C@H](c2ccccc2)[C@H](C(=O)OCc2ccccc2)[C@H]1c1ccccc1`: the inhibitory constant (Ki) in data set [1] (read-out: Ki), in data set [2] (read-out: Ki) and in data set [3] (read-out: Ki) was over 10 µM each time.

In the case of `O=C(O)[C@H]1[C@H](c2ccccc2)[C@H](C(=O)Oc2ccccc2-c2ccccc2)[C@H]1c1ccccc1`, in data set [2] (read-out: Ki), the Ki came to 0.35 µM.

Turning to `O=C(O)[C@H]1[C@H](c2ccccc2[N+](=O)[O-])[C@H](C(=O)Oc2cccc3ccccc23)[C@H]1c1ccccc1[N+](=O)[O-]`, the Ki in data set [1] (read-out: Ki), in data set [2] (read-out: Ki) and in data set [3] (read-out: Ki) was over 10 µM in each case.

Regarding `O=C(O)[C@H]1[C@H](c2ccccc2)[C@H](C(=O)O[C@@H]2CCCC[C@H]2c2ccccc2)[C@H]1c1ccccc1`, the Activity result in data set [4] was “Not Active”.

Regarding `COc1ccc([C@H]2[C@H](C(=O)O)[C@H](c3ccc(OC)c(OC)c3)[C@H]2C(=O)O)cc1OC`, the Ki in data set [1] (read-out: Ki), in data set [2] (read-out: Ki) and in data set [3] (read-out: Ki) was over 10 µM in each case.

As for `O=C(OCc1ccc(F)cc1)[C@H]1[C@H](c2ccccc2)[C@H](C(=O)OCc2ccc(F)cc2)[C@H]1c1ccccc1`, the Ki in data set [1] (read-out: Ki), in data set [2] (read-out: Ki) and in data set [3] (read-out: Ki) was over 10 µM in each case.

Consider `O=C(O)[C@H]1[C@@H](c2ccccc2)[C@H](C(=O)Oc2cccc3ccccc23)[C@@H]1c1ccccc1`, for which the Ki in data set [1] (read-out: Ki) turned out to be 3.26 µM.

Turning to `O=C(O)[C@H]1[C@H](c2ccccc2)[C@H](C(=O)OC2CCCCC2)[C@H]1c1ccccc1`, the Ki in data set [1] (read-out: Ki) was over 10 µM; in data set [2] (read-out: Ki) it was 0.5 µM.

Consider `O=C(O)[C@H]1[C@H](c2ccccc2[N+](=O)[O-])[C@H](C(=O)O[C@@H]2CCCC[C@H]2c2ccccc2)[C@H]1c1ccccc1[N+](=O)[O-]`, for which the Ki in data set [1] (read-out: Ki), in data set [2] (read-out: Ki) and in data set [3] (read-out: Ki) was over 10 µM in each case.

For `O=C(Oc1cccc(-c2ccccc2)c1)[C@H]1[C@H](c2ccccc2)[C@H](C(=O)Oc2cccc(-c3ccccc3)c2)[C@H]1c1ccccc1`, the Ki result in data set [1], in data set [2] and in data set [3] was “Nd(Insoluble)” throughout.

Take `O=C(O)[C@H]1[C@H](c2ccccc2)[C@H](C(=O)OCC(F)(F)F)[C@H]1c1ccccc1`: the inhibition constant (Ki) in data set [1] (read-out: Ki) and in data set [3] (read-out: Ki) was over 10 µM each time.

Consider `O=C(O)[C@H]1[C@H](c2ccccc2)[C@H](C(=O)OCc2ccccc2)[C@H]1c1ccccc1`, for which the values for the inhibition constant Ki in data set [1] (read-out: Ki) and in data set [3] (read-out: Ki) were over 10 µM and 3.81 µM, respectively.

As to `O=C(O)[C@H]1[C@H](c2ccccc2)[C@H](C(=O)Oc2cc(Cl)c(Cl)cc2Cl)[C@H]1c1ccccc1`, the figures for the Ki in data set [1] (read-out: Ki) and in data set [2] (read-out: Ki) were 2.98 µM and 0.54 µM, respectively.

In the case of `O=C(O)[C@H]1[C@H](c2c(Cl)cccc2Cl)[C@H](C(=O)O[C@@H]2CCCC[C@H]2c2ccccc2)[C@H]1c1c(Cl)cccc1Cl`, the Ki in data set [1] (read-out: Ki) is over 10 µM; in data set [3] (read-out: Ki), 1.23 µM.

As for `O=C(O)[C@H]1[C@H](c2ccc(O)cc2)[C@H](C(=O)Oc2cccc3ccccc23)[C@H]1c1ccc(O)cc1` (racemic), the values for the Ki in data set [1] (read-out: Ki) and in data set [3] (read-out: Ki) were 2.3 µM and over 10 µM, respectively.

In the case of `C#Cc1cccc(OC(=O)[C@H]2[C@@H](c3ccccc3)[C@H](C(=O)O)[C@@H]2c2ccccc2)c1` (racemic), the inhibition constant Ki in data set [1] (read-out: Ki) was over 10 µM; in data set [2] (read-out: Ki), 0.78 µM; in data set [3] (read-out: Ki), 0.89 µM.

With `O=C(O)[C@H]1[C@H](c2ccccc2Cl)[C@H](C(=O)O[C@@H]2CCCC[C@H]2c2ccccc2)[C@H]1c1ccccc1Cl` (racemic), the results for the inhibition constant Ki in data set [1] (read-out: Ki), in data set [2] (read-out: Ki) and in data set [3] (read-out: Ki) were over 10 µM, over 10 µM and 1.7 µM, respectively.

Consider `O=C(O)C1C(c2ccccc2)C(C(=O)Oc2cccc3ccccc23)C1c1ccccc1` (racemic), for which the Ki came out at 2.7 µM in data set [1] (read-out: Ki) and 0.45 µM in data set [2] (read-out: Ki). Also, in data set [5], the half-life is 180 min. For the same molecule, the Activity result in data set [4] is listed as “Not Active”.
